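Values below derive from 48-hour exposures of cells grown in 96-well plates, with endpoints linearly interpolated between the two concentrations bracketing the appropriate inhibition level. TGI denotes the concentration required for complete inhibition of growth.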
Tests used:
Assay in all cases: inhibition of tumour cell growth, NCI panel, 48 h
NCI/ADR-RES ovarian = tested on: NCI/ADR-RES ovarian
SF-268 CNS = tested on: SF-268 CNS
NCI-H460 lung = tested on: NCI-H460 lung
SK-MEL-28 melanoma = tested on: SK-MEL-28 melanoma
HT29 colon = tested on: HT29 colon
HCT-116 colon = tested on: HCT-116 colon
NCI-H522 lung = tested on: NCI-H522 lung
M14 melanoma = tested on: M14 melanoma
LOX IMVI melanoma = tested on: LOX IMVI melanoma
SR leukemia = tested on: SR leukemia
BT-549 breast = tested on: BT-549 breast
SN12C renal = tested on: SN12C renal
COLO 205 colon = tested on: COLO 205 colon
CCRF-CEM leukemia = tested on: CCRF-CEM leukemia
MDA-MB-435 = tested on: MDA-MB-435
K-562 leukemia = tested on: K-562 leukemia
SK-OV-3 ovarian = tested on: SK-OV-3 ovarian
MOLT-4 leukemia = tested on: MOLT-4 leukemia
UACC-62 melanoma = tested on: UACC-62 melanoma
RPMI-8226 leukemia = tested on: RPMI-8226 leukemia
SK-MEL-2 melanoma = tested on: SK-MEL-2 melanoma
OVCAR-8 ovarian = tested on: OVCAR-8 ovarian
MCF7 breast = tested on: MCF7 breast
HS 578T breast = tested on: HS 578T breast
786-0 renal = tested on: 786-0 renal
SF-295 CNS = tested on: SF-295 CNS
KM12 colon = tested on: KM12 colon
SF-539 CNS = tested on: SF-539 CNS
ACHN renal = tested on: ACHN renal
OVCAR-3 ovarian = tested on: OVCAR-3 ovarian
SW-620 colon = tested on: SW-620 colon
MALME-3M melanoma = tested on: MALME-3M melanoma
OVCAR-4 ovarian = tested on: OVCAR-4 ovarian
HOP-62 NSCLC = tested on: HOP-62 NSCLC
PC-3 prostate = tested on: PC-3 prostate
U251 CNS = tested on: U251 CNS
EKVX NSCLC = tested on: EKVX NSCLC
SK-MEL-5 melanoma = tested on: SK-MEL-5 melanoma
NCI-H23 lung = tested on: NCI-H23 lung
T-47D breast = tested on: T-47D breast
RXF 393 renal = tested on: RXF 393 renal
CAKI-1 renal = tested on: CAKI-1 renal
SNB-75 CNS = tested on: SNB-75 CNS
NCI-H226 lung = tested on: NCI-H226 lung
A549 NSCLC = tested on: A549 NSCLC
DU-145 prostate = tested on: DU-145 prostate
MDA-MB-231 breast = tested on: MDA-MB-231 breast
MDA-N = tested on: MDA-N
HOP-92 NSCLC = tested on: HOP-92 NSCLC
OVCAR-5 ovarian = tested on: OVCAR-5 ovarian
IGROV1 ovarian = tested on: IGROV1 ovarian
SNB-19 CNS = tested on: SNB-19 CNS
A498 renal = tested on: A498 renal
TK-10 renal = tested on: TK-10 renal
HCT-15 colon = tested on: HCT-15 colon
UACC-257 melanoma = tested on: UACC-257 melanoma
UO-31 renal = tested on: UO-31 renal

Measured: TGI

CC(=O)C(C(=N)C#N)C(=O)Nc1ccccc1 (configuration not stated)
> 100 µM: NCI/ADR-RES ovarian | SF-268 CNS | NCI-H460 lung | SK-MEL-28 melanoma | HT29 colon | HCT-116 colon | NCI-H522 lung | M14 melanoma | LOX IMVI melanoma | SR leukemia | BT-549 breast | SN12C renal | COLO 205 colon | CCRF-CEM leukemia | MDA-MB-435 | K-562 leukemia | SK-OV-3 ovarian | MOLT-4 leukemia | UACC-62 melanoma | RPMI-8226 leukemia | SK-MEL-2 melanoma | OVCAR-8 ovarian | MCF7 breast | HS 578T breast | 786-0 renal | SF-295 CNS | KM12 colon | SF-539 CNS | ACHN renal | OVCAR-3 ovarian | SW-620 colon | MALME-3M melanoma | OVCAR-4 ovarian | HOP-62 NSCLC | PC-3 prostate | U251 CNS | EKVX NSCLC | SK-MEL-5 melanoma | NCI-H23 lung | T-47D breast | RXF 393 renal | CAKI-1 renal | SNB-75 CNS | NCI-H226 lung | A549 NSCLC | DU-145 prostate | MDA-MB-231 breast | MDA-N | HOP-92 NSCLC | OVCAR-5 ovarian | IGROV1 ovarian | SNB-19 CNS | A498 renal | TK-10 renal | HCT-15 colon | UACC-257 melanoma
